Laboratory results from publication PMC9627161 (Frontiers in Pharmacology, 2022).
Peptide text beside a SMILES is read from it.

Columns and labels:
Mpro = Mpro (Severe acute respiratory syndrome coronavirus 2, UniProt P0DTD1); test: MST binding to Mpro protein; set-up: species or system SARS-CoV-2; settings: mean ± SD (n = 3)
SARS-CoV-2 pseudovirus = settings: 1 h, 5 μM
RBD = RBD (Severe acute respiratory syndrome coronavirus 2, UniProt P0DTC2); test: MST binding to RBD protein; set-up: species or system SARS-CoV-2; settings: mean ± SD (n = 3)
Method: To detect the interaction between the peptides and RBD/Mpro, the MST experiments were performed using the Monolith NT.115 instrument. RBD and Mpro proteins were labeled with the Lys labeling kit, respectively. In the assay, the final concentration of the labeled protein was 50 nM, and the peptides were gradient-diluted in 1:1 dilution and starting from 12.5 μM. After brief incubation in MST buffer, the samples were loaded into MST-standard glass capillaries. All the measurements were performed in triplicate using automatically assigned 50% MST power and 20% LED power.

| SMILES | Mpro, Kd (Mpro) | Mpro, Kd (Mpro; listed as peptide-5) | inhibition against pseudotyped SARS-CoV-2 virus (SARS-CoV-2 pseudovirus) | RBD, Kd (RBD) | RBD, Kd (RBD; listed as peptide-21) |
| --- | --- | --- | --- | --- | --- |
| CC[C@H](C)[C@H](N)C(=O)N[C@@H](CCC(=O)O)C(=O)N[C@@H](CCC(=O)O)C(=O)N[C@@H](CCC(N)=O)C(=O)N[C@@H](C)C(=O)N[C@@H](CCCCN)C(=O)N[C@H](C(=O)N[C@@H](Cc1ccccc1)C(=O)N[C@@H](CC(C)C)C(=O)N[C@@H](CC(=O)O)C(=O)N[C@@H](CCCCN)C(=O)N[C@@H](Cc1ccccc1)C(=O)N[C@@H](CC(N)=O)C(=O)N[C@@H](Cc1c[nH]cn1)C(=O)N[C@@H](CCC(=O)O)C(=O)N[C@@H](CCCCN)C(=O)N[C@@H](CCC(=O)O)C(=O)N[C@@H](CC(=O)O)C(=O)N[C@@H](CC(C)C)C(=O)N[C@@H](CCC(=O)O)C(=O)N[C@@H](Cc1ccc(O)cc1)C(=O)N[C@@H](CCC(N)=O)C(=O)N[C@@H](CO)C(=O)N[C@@H](CO)C(=O)N[C@@H](CC(C)C)C(=O)N[C@@H](C)C(=O)N[C@@H](CO)C(=O)N[C@@H](Cc1c[nH]c2ccccc12)C(=O)N[C@@H](CC(N)=O)C(=O)N[C@@H](Cc1ccc(O)cc1)C(=O)N[C@@H](CC(N)=O)C(=O)N[C@H](C(=O)N[C@@H](CC(N)=O)C(=O)N[C@H](C(=O)N[C@H](C(=O)O)[C@@H](C)O)[C@@H](C)CC)[C@@H](C)O)[C@@H](C)O [Peptide-5] (H-IEEQAKTFLDKFNHEKEDLEYQSSLASWNYNTNIT-OH; N-terminus and C-terminus assumed) | no binding | no binding affinity | about 40% | – | – |
| CC(=O)N[C@@H](CO)C(=O)N[C@H](C(=O)N[C@@H](CO)C(=O)N[C@@H](C)C(=O)N[C@H](C(=O)N[C@@H](CC(C)C)C(=O)N[C@@H](CCC(N)=O)C(=O)N[C@@H](CO)C(=O)NCC(=O)N[C@@H](Cc1ccccc1)C(=O)N[C@@H](CCCNC(=N)N)C(=O)N[C@@H](CCCCN)C(=O)N[C@@H](Cc1ccccc1)C(N)=O)C(C)C)[C@@H](C)O [Peptide-21] | – | – | < 20% | no binding | no binding affinity |
